In US9045445B2, “Glycine transporter-1 inhibitors, methods of making them, and uses thereof” (Albany Molecular Research, Inc., priority 2010, dated 2015):
Structures can show the parent of a compound that is named as a salt.

How the values were obtained:
[1] = target: T1, glycine transporter-1 (GlyT-1) (Homo sapiens, UniProt P48067); assay: [14C]glycine uptake assay in JAR cells endogenously expressing GlyT-1 (scintillation proximity); type: cell-based; settings: JAR cells, [14C]glycine 5 μM, 3 hour incubation; read-out: GlyT-1 IC50
T1 construct: JAR cells (ATCC#HTB-144), which endogenously express GlyT-1; host or cells: JAR human choriocarcinoma cells
T1 sequence (P48067 1-706): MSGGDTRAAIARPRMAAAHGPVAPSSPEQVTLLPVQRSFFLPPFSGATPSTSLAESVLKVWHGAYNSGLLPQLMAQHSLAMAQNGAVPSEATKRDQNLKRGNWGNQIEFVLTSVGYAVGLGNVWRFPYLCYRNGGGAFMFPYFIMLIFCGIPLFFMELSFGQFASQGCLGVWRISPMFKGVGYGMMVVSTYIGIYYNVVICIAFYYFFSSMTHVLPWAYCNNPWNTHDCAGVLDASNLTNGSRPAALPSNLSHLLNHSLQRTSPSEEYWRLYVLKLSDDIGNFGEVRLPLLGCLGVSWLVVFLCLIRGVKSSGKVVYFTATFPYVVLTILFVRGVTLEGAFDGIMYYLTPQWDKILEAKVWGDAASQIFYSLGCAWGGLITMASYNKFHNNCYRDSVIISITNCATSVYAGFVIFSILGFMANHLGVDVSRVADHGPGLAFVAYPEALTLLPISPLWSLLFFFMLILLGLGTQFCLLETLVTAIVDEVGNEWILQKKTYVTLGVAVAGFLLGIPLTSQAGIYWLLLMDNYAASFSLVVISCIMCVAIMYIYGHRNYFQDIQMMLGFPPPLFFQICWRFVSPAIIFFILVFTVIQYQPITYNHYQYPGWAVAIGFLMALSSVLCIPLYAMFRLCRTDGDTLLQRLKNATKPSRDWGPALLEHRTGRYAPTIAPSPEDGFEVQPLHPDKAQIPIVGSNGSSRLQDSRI
In short: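 IC50 comes from a four-parameter fit of nine-point, duplicate curves measuring inhibition of 5 μM [14C]glycine uptake, read by scintillation proximity after 3 h at 37 °C. Cells are human JAR, which express GlyT-1 endogenously, given 10 min compound pre-treatment in pH 7.4 buffer with 5 mM alanine and 0.75% DMSO.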

[2] = target: T2, glycine transporter-2 (GlyT-2) (Homo sapiens, UniProt Q9Y345); assay: [14C]glycine uptake assay in HEK-GlyT-2 transfected cells; type: cell-based; settings: HEK-GlyT-2 cells
T2 construct: expressed in transfected cells
T2 sequence (Q9Y345 1-797): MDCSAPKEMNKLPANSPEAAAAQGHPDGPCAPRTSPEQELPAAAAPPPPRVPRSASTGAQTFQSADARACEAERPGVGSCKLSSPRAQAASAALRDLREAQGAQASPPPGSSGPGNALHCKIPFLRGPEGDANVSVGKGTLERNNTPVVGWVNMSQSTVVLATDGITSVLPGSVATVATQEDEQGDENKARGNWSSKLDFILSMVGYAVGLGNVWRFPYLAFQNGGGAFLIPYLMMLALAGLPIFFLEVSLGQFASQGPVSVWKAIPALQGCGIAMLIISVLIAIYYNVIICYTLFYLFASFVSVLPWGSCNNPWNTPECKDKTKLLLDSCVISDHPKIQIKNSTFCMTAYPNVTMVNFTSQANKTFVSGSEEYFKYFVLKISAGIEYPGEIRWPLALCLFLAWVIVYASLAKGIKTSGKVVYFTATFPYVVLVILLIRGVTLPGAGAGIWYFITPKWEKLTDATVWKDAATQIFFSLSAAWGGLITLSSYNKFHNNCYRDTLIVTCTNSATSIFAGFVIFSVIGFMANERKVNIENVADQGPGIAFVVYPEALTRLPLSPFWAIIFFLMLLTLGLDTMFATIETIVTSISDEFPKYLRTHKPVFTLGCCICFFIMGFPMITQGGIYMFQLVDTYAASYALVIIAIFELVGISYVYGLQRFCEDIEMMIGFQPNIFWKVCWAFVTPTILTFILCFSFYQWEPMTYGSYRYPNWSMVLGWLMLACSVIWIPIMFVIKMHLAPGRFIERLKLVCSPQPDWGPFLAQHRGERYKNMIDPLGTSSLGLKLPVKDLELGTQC

Work on `CC(NC(=O)c1ccc(F)cc1Cl)C1(N2CCN(S(=O)(=O)c3cn(C)nn3)CC2)CCC(F)(F)CC1` (centres unmarked) [compound 220, 2-Chloro-N-(1-(4,4-difluoro-1-(4-(1-methyl-1H-1,2,3-triazol-4-ylsulfonyl)piperazin-1-yl)cyclohexyl)ethyl)-4-fluorobenzamide Hydrochloride] yielded an IC50 [1] of 83 nM and an IC50 [2] greater than 75000 nM.

`CCCS(=O)(=O)N1CCN(C2(CNC(=O)c3ccc(Br)cc3)CCCCC2)CC1` [compound 11, 4-Bromo-N-((1-(4-(propylsulfonyl)piperazin-1-yl)cyclohexyl)methyl) benzamide Hydrochloride] was tested, and the IC50 [1] was 222 nM and the IC50 [2] was greater than 75000 nM.

With `Cn1cc(S(=O)(=O)N2CCN(C3(CNC(=O)c4c(F)cccc4F)CCOCC3)CC2)nn1` [compound 128, 2,6-Difluoro-N-((4-(4-(1-methyl-1H-1,2,3-triazol-4-ylsulfonyl)piperazin-1-yl)tetrahydro-2H-pyran-4-yl)methyl)benzamide Hydrochloride] the IC50 [1] was 83 nM and the IC50 [2] was greater than 75000 nM.

Work on `CCCS(=O)(=O)N1CCN(C2(CNC(=O)c3ccccc3F)CCCCCC2)CC1` [compound 63, 2-Fluoro-N-((1-(4-(propylsulfonyl)piperazin-1-yl)cycloheptyl)methyl) benzamide Hydrochloride] yielded an IC50 [1] of 99 nM and an IC50 [2] greater than 75000 nM.

`CCCS(=O)(=O)N1CCN(C2(CNC(=O)c3c(N)cccc3Cl)CCCC2)CC1` [compound 77, 2-Amino-6-chloro-N-((1-(4-(propylsulfonyl)piperazin-1-yl)cyclopentyl)methyl) benzamide Hydrochloride] gave an IC50 [1] of 183 nM and an IC50 [2] greater than 30000 nM.

For `Cn1cnc(S(=O)(=O)N2CCN(C3(CNC(=O)c4ccc(F)cc4Cl)CCCCC3)CC2)c1` [compound 101, 2-Chloro-4-fluoro-N-((1-(4-(1-methyl-1H-imidazol-4-ylsulfonyl)piperazin-1-yl)cyclohexyl)methyl) benzamide Hydrochloride], the IC50 [1] was 2 nM and the IC50 [2] was greater than 75000 nM.

For `CCCS(=O)(=O)N1CCN(C2(CNC(=O)c3c(Cl)cc(C(F)(F)F)cc3C(F)(F)F)CCC(F)(F)CC2)CC1` [compound 254, 2-Chloro-N-((4,4-difluoro-1-(4-(propylsulfonyl)piperazin-1-yl)cyclohexyl)methyl)-4,6-bis(trifluoromethyl) benzamide Hydrochloride], the IC50 [1] was 7 nM and the IC50 [2] was greater than 75000 nM.

`CCCS(=O)(=O)N1CCN(C2(CNC(=O)c3c(N)cccc3Cl)CCCCCC2)CC1` [compound 56, 2-Amino-6-chloro-N-((1-(4-(propylsulfonyl)piperazin-1-yl)cycloheptyl)methyl) benzamide Hydrochloride] gave an IC50 [1] of 6 nM and an IC50 [2] of 39000 nM.

Work on `COc1cccc(F)c1C(=O)NCC1(N2CCN(S(=O)(=O)c3cn(C)cn3)CC2)CCCCC1` [compound 96, 2-Fluoro-6-methoxy-N-((1-(4-(1-methyl-1H-imidazol-4-ylsulfonyl)piperazin-1-yl)cyclohexyl)methyl) benzamide Hydrochloride] yielded an IC50 [1] of 2 nM and an IC50 [2] greater than 75000 nM.

`CCCS(=O)(=O)N1CCN(C2(CNC(=O)c3ccc(OC)cc3)CCCCC2)CC1` [compound 23, 4-Methoxy-N-((1-(4-(propylsulfonyl)piperazin-1-yl)cyclohexyl)methyl) benzamide Hydrochloride] gave an IC50 [1] of 1140 nM and an IC50 [2] of 61900 nM.

`CC(C)CS(=O)(=O)N1CCN(C2(CNC(=O)c3c(N)cccc3Cl)CCCCC2)CC1` [compound 92, 2-Amino-6-chloro-N-((1-(4-(isobutylsulfonyl)piperazin-1-yl)cyclohexyl)methyl) benzamide Hydrochloride] was tested, and the IC50 [1] was 952 nM and the IC50 [2] was 54800 nM.

`CC(NC(=O)c1ccc(C(F)(F)F)cc1Cl)C1(N2CCN(S(=O)(=O)c3cn(C)nn3)CC2)CCC(F)(F)CC1` (racemic) [compound 222, (±)-2-Chloro-N-(1-(4,4-difluoro-1-(4-(1-methyl-1H-1,2,3-triazol-4-ylsulfonyl)piperazin-1-yl)cyclohexyl)ethyl)-4-(trifluoromethyl) benzamide Hydrochloride] was tested, and the IC50 [1] was 1 nM and the IC50 [2] was greater than 75000 nM.

For `CCCS(=O)(=O)N1CCN(C2(CNC(=O)c3c(N)cccc3Cl)Cc3ccccc3C2)CC1` [compound 115, 2-Amino-6-chloro-N-((2-(4-(propylsulfonyl)piperazin-1-yl)-2,3-dihydro-1H-inden-2-yl)methyl)benzamide Hydrochloride], the IC50 [1] was 661 nM and the IC50 [2] was greater than 75000 nM.

`CCCS(=O)(=O)N1CCN(C2(CNC(=O)c3cc(Cl)ccc3Cl)CCCCC2)CC1` [compound 32, 2,5-Dichloro-N-((1-(4-(propylsulfonyl)piperazin-1-yl)cyclohexyl)methyl) benzamide Hydrochloride] gave an IC50 [1] of 71 nM and an IC50 [2] greater than 75000 nM.

In the case of `Cc1cccc(F)c1C(=O)NCC1(N2CCN(S(=O)(=O)CC3CC3)CC2)CCCCC1` [compound 80, N-((1-(4-(Cyclopropylmethyl-sulfonyl)piperazin-1-yl)cyclohexyl)methyl)-2-fluoro-6-methylbenzamide Hydrochloride], the IC50 [1] is reported as 29 nM and the IC50 [2] is reported as greater than 75000 nM.

Molecule `Cn1cc(S(=O)(=O)N2CCN(C3(CNC(=O)c4cc(F)c(Cl)cc4Cl)CCC(F)(F)CC3)CC2)nn1` [compound 231, 2,4-Dichloro-N-((4,4-difluoro-1-(4-(1-methyl-1H-1,2,3-triazol-4-ylsulfonyl)piperazin-1-yl)cyclohexyl)methyl)-5-fluorobenzamide Hydrochloride] has an IC50 [1] of 1 nM and an IC50 [2] greater than 75000 nM.

`Cn1cnc(S(=O)(=O)N2CCN(C3(CNC(=O)c4ccccc4C(F)(F)F)CCC(F)(F)CC3)CC2)c1` [compound 176, N-((4,4-Difluoro-1-(4-(1-methyl-1H-imidazol-4-ylsulfonyl)piperazin-1-yl)cyclohexyl)methyl)-2-(trifluoromethyl)benzamide Hydrochloride] showed an IC50 [1] of 3 nM and an IC50 [2] of 69200 nM.

`Cn1cc(S(=O)(=O)N2CCN(C3(CNC(=O)c4ccc(F)cc4C(F)(F)F)CCC(F)(F)CC3)CC2)nn1` [compound 233, N-((4,4-Difluoro-1-(4-(1-methyl-1H-1,2,3-triazol-4-ylsulfonyl)piperazin-1-yl)cyclohexyl)methyl)-4-fluoro-2-(trifluoromethyl)benzamide Hydrochloride] gave an IC50 [1] of 1 nM and an IC50 [2] greater than 75000 nM.

With `CCCS(=O)(=O)N1CCN(C2(CNC(=O)c3cccc(C(F)(F)F)c3)CCCCC2)CC1` [compound 28, N-((1-(4-(Propylsulfonyl)piperazin-1-yl)cyclohexyl)methyl)-3-(trifluoromethyl) benzamide Hydrochloride] the IC50 [1] was 523 nM and the IC50 [2] was greater than 75000 nM.

`CCCS(=O)(=O)N1CCN(C2(CNC(=O)c3ccccc3OC)CCC(F)(F)CC2)CC1` [compound 133, N-((4,4-Difluoro-1-(4-(propylsulfonyl)piperazin-1-yl)cyclohexyl)methyl)-2-methoxybenzamide Hydrochloride] was tested, and the IC50 [1] was 48 nM and the IC50 [2] was greater than 75000 nM.

For “4-Chloro-N-((1-(4- (propylsulfonyl)piperazin- 1-yl)cycloheptyl)methyl) benzamide Hydrochloride [compound 58]”, the IC50 [1] was 265 nM and the IC50 [2] was 53000 nM.

For `CCCS(=O)(=O)N1CCN(C2(CNC(=O)c3ccc(C(F)(F)F)cc3)CCCCC2)CC1` [compound 7, N-((1-(4-(Propyl-sulfonyl)piperazin-1-yl)cyclohexyl)methyl)-4-(trifluoromethyl) benzamide Hydrochloride], the IC50 [1] was 126 nM and the IC50 [2] was greater than 30000 nM.
